These results are taken from patent US7105725B2, “Pathogen resistant transgenic plants expressing CEMA or CEMA-related peptides” (University of Victoria Innovation and Development …, priority 1999, dated 2006).

In experiment [1] the test system is susceptible microorganisms. The note with it: cited from earlier work.
Experiment [2] relates to E. coli. Put plainly: anti-bacterial assay (colony count after 4 h with serially diluted peptide). Format: cell-based, Escherichia coli DH5α. As to the method:
The antibacterial activity of a given CEMA and/or CEMA-related peptide can be assessed conveniently by determining the ability of the peptide to inhibit the growth of a pectinolytic bacterial strain such as Erwinia carotovora or even Escherichia coli DH5α. The activity of a given peptide is determined by serially diluting the peptide in Luria-Bertaini (LB) medium and 100-μL aliquots of the resulting titers into wells of a 96-well microtiter plate. A fresh bacterial culture (˜0.3 A550) is then grown on LB medium (1% w/v tryptone and 0.5% w/v yeast extract) and diluted to 10^−2 in LB to represent approximately 10^4–10^5 colony forming units (CFU)mL^−1. 10 μL of the bacterial culture are then inoculated into each well containing the peptide and the samples are incubated at 37° C. for 4 hours. The well contents are then diluted in LB, plated on LB agar, and incubated overnight at an appropriate temperature. […] The colonies are counted, and the antibacterial activity of the peptide under test is determined by comparison to the control plate.
The CEMA or CEMA-related peptide is determined to have biological activity if, under the conditions of this assay, the peptide is capable of inhibiting bacterial growth by at least 10% (compared to the control) at a concentration of 7 μg per mL (i.e., at this concentration, the number of bacterial colonies is no more than 90% that of the control plate).

On to mellitin, for which the antimicrobial activity result in experiment [1] is reported as “potent antimicrobial activity”.
KWKLFKKIGIGAVLKVLTTGLPALKLTK [CEMA]: the “concentration that kills 50% of bacterial cells” value in experiment [2] stood at 4.5 µg/mL.
